In ChEMBL document CHEMBL2176907, “Identification of multiple 5-HT₄ partial agonist clinical candidates for the treatment of Alzheimer's disease” (J Med Chem, 2012):
Each block holds one compound with its values, some of them ahead of it. Active and inactive are the calls of the source. The calls are words filed in the database; no cut-off is given here.

Key:
[1] = biological target: T1, 5-hydroxytryptamine receptor 4 (Rattus norvegicus, UniProt Q62758)
Description: Agonist activity at rat 5HT4E receptor expressed in HEK293 cells assessed as increase in cAMP production after 30 mins by HTRF assay

Rattus norvegicus [2] = assay: Receptor occupancy of 5HT4 receptor in Sprague-Dawley rat brain at 5 mg/kg, sc up to 4 hrs; format: functional; settings: route subcutaneous
[3] = biological target: T2, 5-hydroxytryptamine receptor 4 (Homo sapiens, UniProt Q13639)
T2 sequence (Q13639 whole entry): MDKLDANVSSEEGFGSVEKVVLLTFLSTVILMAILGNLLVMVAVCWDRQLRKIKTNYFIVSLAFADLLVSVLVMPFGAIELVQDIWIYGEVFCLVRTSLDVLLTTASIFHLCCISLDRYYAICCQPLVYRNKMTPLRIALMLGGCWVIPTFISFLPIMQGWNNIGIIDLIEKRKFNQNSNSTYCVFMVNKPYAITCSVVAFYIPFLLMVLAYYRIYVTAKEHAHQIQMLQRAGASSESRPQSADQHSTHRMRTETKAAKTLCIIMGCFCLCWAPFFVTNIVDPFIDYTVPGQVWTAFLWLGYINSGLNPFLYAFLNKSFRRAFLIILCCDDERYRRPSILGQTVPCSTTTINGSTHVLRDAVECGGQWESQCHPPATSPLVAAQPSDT
Description: Agonist activity at human 5HT4B receptor expressed in HEK293 cells assessed as increase in cAMP production after 30 mins by HTRF assay

Canis familiaris [4] = assay: Gastrointestinal toxicity in beagle dog assessed as emesis at 20 mg/kg administered as repeated dose for 7 days measured up to 1 month; format: organism-based, Canis lupus familiaris; design: dose 20 mg/kg; settings: in vivo, 168 h
[5] = Oral bioavailability in rat; format: ADME, organism-based; settings: in vivo
[6] = AUC (0 to 4 hrs) in sc dosed Sprague-Dawley rat CSF by LC-MS/MS analysis; format: ADME, organism-based; design: time < 4 hr, route subcutaneous
[7] = biological target: T2, 5-hydroxytryptamine receptor 4; remark: listed apart in the source
Description: Agonist activity at human 5HT4A receptor expressed in HEK293 cells assessed as increase in cAMP production after 30 mins by HTRF assay

[8] = Intrinsic clearance in dog liver microsomes; format: ADME, Canis lupus familiaris, Microsome; settings: read-out: CLH
[9] = biological target: T1, 5-hydroxytryptamine receptor 4; remark: listed apart in the source
Description: Agonist activity at rat 5HT4S receptor expressed in HEK293 cells assessed as increase in cAMP production after 30 mins by HTRF assay

[10] = Intrinsic clearance in rat liver microsomes; format: ADME, Microsome; settings: read-out: CLH
Rattus norvegicus [11] = assay: Gastrointestinal toxicity in female Sprague-Dawley rat assessed as mucosal injury at 30 mg/kg administered as repeated dose for 7 days measured up to 1 month; format: organism-based; design: dose 30 mg/kg; settings: in vivo, 168 h
Rattus norvegicus [12] = assay: Gastrointestinal toxicity in male Sprague-Dawley rat assessed as mucosal injury at 100 mg/kg administered as repeated dose for 7 days measured up to 1 month; format: organism-based; design: dose 100 mg/kg; settings: in vivo, 168 h
[13] = Clearance in iv dosed rat; format: ADME, organism-based; settings: in vivo
Rattus norvegicus [14] = assay: Gastrointestinal toxicity in Sprague-Dawley rat assessed as decrease in food intake administered as repeated dose for 7 days measured up to 1 month; format: organism-based; settings: in vivo, 168 h
Canis familiaris [15] = assay: Cardiotoxicity in beagle dog assessed as increase in systolic blood pressure at 0.05 mg/kg administered as repeated dose for 7 days measured up to 1 month; format: toxicity, organism-based, Canis lupus familiaris, Artery; design: dose 0.05 mg/kg; settings: in vivo, 168 h
MDR1 = assay: in vitro; settings: dog, MDCK-MDR1
Description: Efflux ratio of permeability from basal to apical to apical to basal side of MDCK cells expressing MDR1 at 2 uM after 5 hrs by transwell assay

[16] = biological target: T2, 5-hydroxytryptamine receptor 4; assay: Agonist activity at human 5HT4D receptor expressed in HEK293 cells assessed as cAMP production after 30 mins by HTRF assay relative to 5HT; format: functional, cell-based
[17] = biological target: T2, 5-hydroxytryptamine receptor 4; assay: biochemical
Description: Displacement of [3H]GR113808 from human 5HT4A receptor expressed in HEK293 cells after 30 mins by liquid scintillation counting

[18] = biological target: T2, 5-hydroxytryptamine receptor 4; assay: biochemical; remark: listed apart in the source
Description: Displacement of [3H]GR113808 from human 5HT4E receptor expressed in CHO cells after 30 mins by liquid scintillation counting

[19] = biological target: T1, 5-hydroxytryptamine receptor 4; remark: listed apart in the source
Description: Displacement of [3H]GR113808 from 5HT4 receptor in rat striatal membrane after 30 mins by liquid scintillation counting

[20] = biological target: T2, 5-hydroxytryptamine receptor 4; assay: biochemical; remark: listed apart in the source
Description: Displacement of [3H]GR113808 from human 5HT4D receptor expressed in HEK293 cells after 30 mins by liquid scintillation counting

Nucleic Acid [21] = assay: Ratio of drug uptake in CSF to free drug concentration in brain in sc dosed Sprague-Dawley rat; format: ADME, organism-based; settings: in vivo
Brain = assay: Free AUC (0 to 4 hrs) in sc dosed Sprague-Dawley rat brain by LC-MS/MS analysis; format: ADME, organism-based; settings: in vivo
Canis familiaris [22] = assay: Gastrointestinal toxicity in beagle dog assessed as decrease in food intake administered as repeated dose for 7 days measured up to 1 month; format: organism-based, Canis lupus familiaris; settings: in vivo, 168 h
[23] = Clearance in iv dosed dog; format: ADME, organism-based, Canis lupus familiaris; settings: in vivo
Rattus norvegicus [24] = assay: Gastrointestinal toxicity in male Sprague-Dawley rat assessed as reduction in body weight at 100 mg/kg administered as repeated dose for 7 days measured up to 1 month; format: organism-based; design: dose 100 mg/kg; settings: in vivo, 168 h
[25] = Intrinsic clearance in human liver microsomes; format: ADME, Microsome; settings: read-out: CLH
Nucleic Acid [26] = assay: Ratio of drug uptake in CSF to free drug concentration in plasma in sc dosed Sprague-Dawley rat; format: ADME, organism-based; settings: in vivo
[27] = biological target: T2, 5-hydroxytryptamine receptor 4; assay: biochemical; remark: listed apart in the source
Description: Displacement of [3H]GR113808 from human 5HT4B receptor expressed in HEK293 cells after 30 mins by liquid scintillation counting

Plasma = assay: Free AUC (0 to 4 hrs) in sc dosed Sprague-Dawley rat plasma by LC-MS/MS analysis; format: ADME, organism-based; settings: in vivo
Canis familiaris [28] = assay: Neurotoxicity in beagle dog assessed as convulsions at 30 mg/kg administered as repeated dose for 7 days measured up to 1 month; format: toxicity, organism-based, Canis lupus familiaris; design: dose 30 mg/kg; settings: in vivo, 168 h
[29] = biological target: T2, 5-hydroxytryptamine receptor 4; assay: Agonist activity at human 5HT4D receptor expressed in HEK293 cells assessed as cAMP production after 30 mins by HTRF assay; format: functional, cell-based
[30] = Ratio of free drug concentration in brain to free drug concentration in plasma in sc dosed Sprague-Dawley rat; format: ADME, organism-based; settings: read-out: K(p,uu,brain)
Rattus norvegicus [31] = assay: Procognitive activity in Sprague-Dawley rat assessed as increase in acetylcholine level in prefrontal cortex at 5 mg/kg, sc after 3 hrs by brain microdialysis relative to control; format: functional, organism-based; design: dose 5 mg/kg
[32] = biological target: T2, 5-hydroxytryptamine receptor 4; remark: listed apart in the source
Description: Agonist activity at human 5HT4E receptor expressed in HEK293 cells assessed as increase in cAMP production after 30 mins by HTRF assay

[33] = Oral bioavailability in dog; format: ADME, organism-based, Canis lupus familiaris; settings: in vivo
[34] = biological target: T1, 5-hydroxytryptamine receptor 4; remark: listed apart in the source
Description: Agonist activity at rat 5HT4L receptor expressed in HEK293 cells assessed as increase in cAMP production after 30 mins by HTRF assay

Rattus norvegicus [35] = assay: Gastrointestinal toxicity in female Sprague-Dawley rat assessed as reduction in body weight at 30 mg/kg administered as repeated dose for 7 days measured up to 1 month; format: organism-based; design: dose 30 mg/kg; settings: in vivo, 168 h
[36] = Apparent permeability from apical to basal side of RRCK cells at 2 uM after 2 hrs by transwell assay; format: ADME, cell-based, Canis lupus familiaris, MDCKII-LE; settings: dog, MDCK
Rattus norvegicus [37] = assay: Displacement of [3H]SB207145 from 5HT4 receptor in sc dosed Sprague-Dawley rat striatal membrane incubated for 45 mins prior to [3H]SB207145-adminsitration measured after 15 mins; format: functional, organism-based; settings: Striatum
CYP2D6 = CYP2D6 (Homo sapiens, UniProt P10635); assay: Inhibition of CYP2D6 in human liver microsomes using dextromethorphan as substrate at 3 uM; format: ADME, Microsome; settings: probe dextromethorphan
Sequence of CYP2D6 (P10635 whole entry): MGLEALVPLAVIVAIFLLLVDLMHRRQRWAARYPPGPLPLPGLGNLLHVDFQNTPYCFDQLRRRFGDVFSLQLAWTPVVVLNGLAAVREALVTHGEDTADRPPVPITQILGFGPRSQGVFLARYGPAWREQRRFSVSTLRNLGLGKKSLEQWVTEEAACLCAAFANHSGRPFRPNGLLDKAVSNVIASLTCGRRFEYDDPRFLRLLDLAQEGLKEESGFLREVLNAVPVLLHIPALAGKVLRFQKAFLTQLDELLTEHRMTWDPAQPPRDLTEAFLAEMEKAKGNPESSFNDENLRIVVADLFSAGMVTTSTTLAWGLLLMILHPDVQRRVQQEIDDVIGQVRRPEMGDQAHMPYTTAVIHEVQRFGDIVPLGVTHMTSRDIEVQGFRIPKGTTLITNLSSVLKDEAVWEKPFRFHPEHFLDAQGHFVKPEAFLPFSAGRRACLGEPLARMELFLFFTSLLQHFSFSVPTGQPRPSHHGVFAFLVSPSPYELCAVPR

Canis familiaris [38] = assay: Gastrointestinal toxicity in beagle dog assessed as decrease in food intake administered as repeated dose for 7 days measured up to 14 days; format: organism-based, Canis lupus familiaris; settings: in vivo
Rattus norvegicus [39] = assay: Gastrointestinal toxicity in Sprague-Dawley rat assessed as decrease in food intake administered as repeated dose for 7 days measured up to 14 days; format: organism-based; settings: in vivo
Rattus norvegicus [40] = assay: Gastrointestinal toxicity in male Sprague-Dawley rat assessed as mucosal injury at 100 mg/kg administered as repeated dose for 7 days measured up to 14 days; format: organism-based; design: dose 100 mg/kg; settings: in vivo
Rattus norvegicus [41] = assay: Gastrointestinal toxicity in female Sprague-Dawley rat assessed as reduction in body weight at 30 mg/kg administered as repeated dose for 7 days measured up to 14 days; format: organism-based; design: dose 30 mg/kg; settings: in vivo
Rattus norvegicus [42] = assay: Gastrointestinal toxicity in female Sprague-Dawley rat assessed as mucosal injury at 30 mg/kg administered as repeated dose for 7 days measured up to 14 days; format: organism-based; design: dose 30 mg/kg; settings: in vivo
Canis familiaris [43] = assay: Cardiotoxicity in beagle dog assessed as increase in systolic blood pressure at 0.1 mg/kg administered as repeated dose for 7 days measured up to 1 month; format: toxicity, organism-based, Canis lupus familiaris, Artery; design: dose 0.1 mg/kg; settings: in vivo, 168 h
[44] = biological target: 5-hydroxytryptamine receptor 4 (Rattus norvegicus) (UniProt Q62758); assay: Agonist activity at 5HT4 receptor in rat oesophagus assessed as reversal of carbamylcholine-induced contraction at 10 uM incubated at 7 mins post carbamylcholine-challenge measured after 30 mins relative to 5HT; format: functional
Sequence of 5-hydroxytryptamine receptor 4 (Rattus norvegicus) (Q62758 whole entry): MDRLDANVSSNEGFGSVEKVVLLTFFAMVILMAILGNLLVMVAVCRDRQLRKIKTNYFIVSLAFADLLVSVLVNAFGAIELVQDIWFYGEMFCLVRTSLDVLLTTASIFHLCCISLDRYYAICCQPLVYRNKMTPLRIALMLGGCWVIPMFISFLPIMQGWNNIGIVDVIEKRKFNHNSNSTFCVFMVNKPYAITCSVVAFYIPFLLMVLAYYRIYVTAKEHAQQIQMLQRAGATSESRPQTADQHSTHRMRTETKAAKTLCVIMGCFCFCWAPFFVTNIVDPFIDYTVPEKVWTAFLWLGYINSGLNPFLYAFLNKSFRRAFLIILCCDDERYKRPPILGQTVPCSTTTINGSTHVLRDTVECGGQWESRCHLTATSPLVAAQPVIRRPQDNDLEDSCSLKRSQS

Rattus norvegicus [45] = assay: Gastrointestinal toxicity in male Sprague-Dawley rat assessed as reduction in body weight at 100 mg/kg administered as repeated dose for 7 days measured up to 14 days; format: organism-based; design: dose 100 mg/kg; settings: in vivo
Canis familiaris [46] = assay: Gastrointestinal toxicity in beagle dog assessed as emesis at 20 mg/kg administered as repeated dose for 7 days measured up to 14 days; format: organism-based, Canis lupus familiaris; design: dose 20 mg/kg; settings: in vivo
Canis familiaris [47] = assay: Neurotoxicity in beagle dog assessed as convulsions at 30 mg/kg administered as repeated dose for 7 days measured up to 14 days; format: toxicity, organism-based, Canis lupus familiaris; design: dose 30 mg/kg; settings: in vivo

T1 sequence (Q62758 whole entry): as above

SMILES: CC1(C)C(=O)N(C(=O)NCC2CCN(CC3(O)CCOCC3)CC2)c2cc(F)ccc21 [PF-03382792]
EC50 [1]: 2.15 nM
Occ (Rattus norvegicus [2]): >90%
EC50 [3]: 1.3 nM
Activity (Canis familiaris [4]): Toxic
bioavailability [5]: 100%
AUC(0-t) at 4 h [6]: 1.38 µM·h
EC50 [7]: 0.8 nM
CLint scaled [8]: 35.4 mL/min/kg
EC50 [9]: 1.15 nM
CLint scaled [10]: 42.7 mL/min/kg
Activity (Rattus norvegicus [11]): Toxic
Activity (Rattus norvegicus [12]): Toxic
clearance [13]: 104 mL/min/kg
Activity (Rattus norvegicus [14]): Toxic
Activity (Canis familiaris [15]): Toxic
efflux ratio at 5 h, 2 µM (MDR1): 1.37
Emax [16]: 35%
Ki [17]: 4.6 nM
Ki [18]: 6.3 nM
Ki [19]: 3.9 nM
Ki [20]: 2.7 nM
Ratio (Nucleic Acid [21]): 2.1
fAUC (Brain): 2.922 µM·h
Activity (Canis familiaris [22]): Toxic
clearance [23]: 12.4 mL/min/kg
Activity (Rattus norvegicus [24]): Toxic
CLint scaled [25]: 25.4 mL/min/kg
Ratio (Nucleic Acid [26]): 0.8
Ki [27]: 6.8 nM
fAUC (Plasma): 1.669 µM·h
Activity (Canis familiaris [28]): Toxic
EC50 [29]: 0.9 nM
Kp uu [30]: 1.8
Activity (Rattus norvegicus [31]): Active
EC50 [32]: 1.2 nM
bioavailability [33]: 51%
EC50 [34]: 1.52 nM
Activity (Rattus norvegicus [35]): Toxic
Papp A→B at 2 h, 2 µM [36]: > 27 ×10⁻⁶ cm/s
Activity (Rattus norvegicus [37]): Dose-dependent effect

SMILES: CC(C)COc1cccc2onc(OCC3CCN(CC4(O)CCOCC4)CC3)c12
Emax [16]: 85%
inhibition at 3 µM (CYP2D6): 54%
Ki [20]: 0.36 nM
CLint scaled [25]: 72 mL/min/kg
EC50 [29]: 0.98 nM
Papp A→B at 2 h, 2 µM [36]: 3.8 ×10⁻⁶ cm/s

SMILES: CCCCN1CCC(COc2noc3cccc(OCC(C)(C)C)c23)CC1
Emax [16]: 95%
inhibition at 3 µM (CYP2D6): 93%
Ki [20]: 5.2 nM
EC50 [29]: 6.3 nM

The next lines start with results.

Emax [16]: 81%
inhibition at 3 µM (CYP2D6): 79%
Ki [20]: 0.74 nM
CLint scaled [25]: 77 mL/min/kg
EC50 [29]: 1.2 nM
Papp A→B at 2 h, 2 µM [36]: 2.4 ×10⁻⁶ cm/s
SMILES: CCCCN1CCC(COc2noc3cccc(OC4CCCC4)c23)CC1

EC50 [1]: 1.59 nM
EC50 [3]: 1.2 nM
bioavailability [5]: 40%
EC50 [7]: 0.38 nM
CLint scaled [8]: < 5.6 mL/min/kg
EC50 [9]: 0.9 nM
CLint scaled [10]: 45.2 mL/min/kg
clearance [13]: 12.6 mL/min/kg
efflux ratio at 5 h, 2 µM (MDR1): 1.41
Emax [16]: 86%
Ki [17]: 4.4 nM
Ki [18]: 4.9 nM
Ki [19]: 1.5 nM
Ki [20]: 1.7 nM
fAUC (Brain): 0.0443 µM·h
clearance [23]: 40 mL/min/kg
Activity [44]: 70%
CLint scaled [25]: 24.3 mL/min/kg
Ki [27]: 5.5 nM
fAUC (Plasma): 0.0276 µM·h
EC50 [29]: 0.9 nM
Kp uu [30]: 1.6
EC50 [32]: 0.98 nM
bioavailability [33]: 100%
EC50 [34]: 0.96 nM
Papp A→B at 2 h, 2 µM [36]: 21.9 ×10⁻⁶ cm/s
Activity (Rattus norvegicus [37]): Dose-dependent effect
SMILES: CC(C)n1c(=O)n(C(=O)NCC2CCN(CC3(O)CCOCC3)CC2)c2cc(F)ccc21
Occ (Rattus norvegicus [2]): >90%
Activity (Canis familiaris [38]): Toxic
Activity (Rattus norvegicus [39]): Toxic
Activity (Rattus norvegicus [40]): Toxic
Activity (Rattus norvegicus [41]): Toxic
Activity (Rattus norvegicus [42]): Toxic
Activity (Canis familiaris [43]): Toxic
Activity (Rattus norvegicus [45]): Toxic
Activity (Canis familiaris [46]): Toxic
Activity (Rattus norvegicus [31]): Active
Activity (Canis familiaris [47]): Toxic
